Biological target: HLA A*3001 (Homo sapiens, UniProt P04439, D140H/D185E/E176W/F33S/G80R/H175R/K168Q/R138E/R41S)
Test: biochemical
Assay type: binding

| Sequence | Normalized average relative binding affinity(ARB) |
| --- | --- |
| XXXXGXXXX [3064.0086] | 0.29 |
| XXXXHXXXX [3064.0087] | 0.14 |
| XXXXIXXXX [3064.0088] | 0.20 |
| XXXXKXXXX [3064.0089] | 0.16 |
| XXXXLXXXX [3064.0090] | 0.14 |
| XXXXMXXXX [3064.0091] | 0.33 |

Biological target: H-2 K^d (Mus musculus, UniProt P01902)
Test: not given
Assay type: binding

H-2 K^d, sequence (P01887 21-119): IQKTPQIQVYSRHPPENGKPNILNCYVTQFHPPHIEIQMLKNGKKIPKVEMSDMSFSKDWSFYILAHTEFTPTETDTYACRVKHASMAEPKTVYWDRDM
H-2 K^d, sequence (P01902 22-368): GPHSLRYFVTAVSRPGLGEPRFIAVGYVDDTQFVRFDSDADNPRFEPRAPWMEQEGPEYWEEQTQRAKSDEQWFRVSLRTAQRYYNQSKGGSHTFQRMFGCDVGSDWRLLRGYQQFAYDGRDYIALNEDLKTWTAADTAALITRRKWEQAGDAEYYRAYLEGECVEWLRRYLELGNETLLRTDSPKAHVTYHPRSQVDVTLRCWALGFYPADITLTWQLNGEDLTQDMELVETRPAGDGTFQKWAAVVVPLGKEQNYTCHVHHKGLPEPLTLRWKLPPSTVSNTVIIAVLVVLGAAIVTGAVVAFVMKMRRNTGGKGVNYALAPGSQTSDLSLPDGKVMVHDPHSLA

| Sequence | Normalized average relative binding affinity(ARB) |
| --- | --- |
| XXXXGXXXX [3064.0086] | 0.30 |
| XXXXHXXXX [3064.0087] | 0.064 |
| XXXXIXXXX [3064.0088] | 0.19 |
| XXXXKXXXX [3064.0089] | 0.011 |
| XXXXLXXXX [3064.0090] | 0.18 |
| XXXXMXXXX [3064.0091] | 0.60 |

Biological target: HLA B*1501 (Homo sapiens, UniProt P01889, A329T/A93T/A95T/C349S/D201E/D98Y/E187L/E204Q/E69M/E70A/K202T/N87E/Q94N/R155S/R180W/S121R/S35A/S48A/V306I/V36M/Y140S/Y91S)
Test: biochemical
Assay type: binding

| Sequence | Normalized average relative binding affinity(ARB) |
| --- | --- |
| XXXXGXXXX [3064.0086] | 0.77 |
| XXXXHXXXX [3064.0087] | 0.66 |
| XXXXIXXXX [3064.0088] | 0.32 |
| XXXXKXXXX [3064.0089] | 0.31 |
| XXXXLXXXX [3064.0090] | 0.69 |
| XXXXMXXXX [3064.0091] | 0.41 |

Biological target: HLA A*3201 (Homo sapiens, UniProt P04439, A270S/D101S/D185E/E176V/E277Q/F133L/G103R/G107R/G231S/H175R/I121M/I218V/I322F/K168Q/L105A/L300P/L318F/M331R/P208A/P217A/Q94H/R106L/R138Q/S129P/T104I/T323A/T345S/V100E/V321M/V358M)
Test: biochemical
Assay type: binding

| Sequence | Normalized average relative binding affinity(ARB) |
| --- | --- |
| XXXXGXXXX [3064.0086] | 0.31 |
| XXXXHXXXX [3064.0087] | 0.14 |
| XXXXIXXXX [3064.0088] | 0.59 |
| XXXXKXXXX [3064.0089] | 0.16 |
| XXXXLXXXX [3064.0090] | 0.57 |
| XXXXMXXXX [3064.0091] | 0.31 |

Biological target: HLA B*0801 (Homo sapiens, UniProt P01889, A93T/A95T/D138N/E176V/E187T/K202T/Q94N/R180D/S35A/V36M/Y33D/Y91F)
Test: biochemical
Assay type: binding

| Sequence | Normalized average relative binding affinity(ARB) |
| --- | --- |
| XXXXGXXXX [3064.0086] | 0.029 |
| XXXXHXXXX [3064.0087] | 0.65 |
| XXXXIXXXX [3064.0088] | 0.080 |
| XXXXKXXXX [3064.0089] | 0.47 |
| XXXXLXXXX [3064.0090] | 0.062 |
| XXXXMXXXX [3064.0091] | 0.078 |

Biological target: H-2 D^d (Mus musculus, UniProt P01900)
Sequence (P01900 whole entry, looked up): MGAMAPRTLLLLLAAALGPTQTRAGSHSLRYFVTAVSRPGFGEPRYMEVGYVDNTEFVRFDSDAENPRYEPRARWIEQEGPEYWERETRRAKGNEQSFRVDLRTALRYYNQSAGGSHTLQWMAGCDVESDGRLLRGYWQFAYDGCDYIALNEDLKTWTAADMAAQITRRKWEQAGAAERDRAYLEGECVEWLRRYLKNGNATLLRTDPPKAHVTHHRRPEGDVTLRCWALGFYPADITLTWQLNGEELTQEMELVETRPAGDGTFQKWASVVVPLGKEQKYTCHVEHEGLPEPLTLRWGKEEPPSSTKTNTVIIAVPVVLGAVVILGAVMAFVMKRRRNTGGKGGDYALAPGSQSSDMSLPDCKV
Test: not given
Assay type: binding

| Sequence | Normalized average relative binding affinity(ARB) |
| --- | --- |
| XXXXGXXXX [3064.0086] | 0.11 |
| XXXXHXXXX [3064.0087] | 0.64 |
| XXXXIXXXX [3064.0088] | 0.28 |
| XXXXKXXXX [3064.0089] | 0.44 |
| XXXXLXXXX [3064.0090] | 0.28 |
| XXXXMXXXX [3064.0091] | 0.19 |

Biological target: HLA B*1503 (Homo sapiens, UniProt P01889, A329T/A93T/A95T/C349S/D201E/D98Y/E187L/E204Q/K202T/N87E/Q94N/R155S/R180L/S121R/S35A/V306I/V36M/Y140S/Y91S)
Test: biochemical
Assay type: binding

| Sequence | Normalized average relative binding affinity(ARB) |
| --- | --- |
| XXXXGXXXX [3064.0086] | 0.65 |
| XXXXHXXXX [3064.0087] | 0.32 |
| XXXXIXXXX [3064.0088] | 0.12 |
| XXXXKXXXX [3064.0089] | 0.13 |
| XXXXLXXXX [3064.0090] | 0.090 |
| XXXXMXXXX [3064.0091] | 0.064 |

Biological target: HLA B*5101 (Homo sapiens, UniProt P01889, A329T/A93T/A95T/C349S/D138N/D201E/D98Y/E187L/E204Q/E69T/G107R/I218V/K202T/L105A/L119W/N104I/Q94N/R106L/R155S/R180L/S101N/S121T/S35A/S48A/V306I/V36M/Y195H/Y91F)
Test: not given
Assay type: binding

| Sequence | Normalized average relative binding affinity(ARB) |
| --- | --- |
| XXXXGXXXX [3064.0086] | 0.31 |
| XXXXHXXXX [3064.0087] | 0.35 |
| XXXXIXXXX [3064.0088] | 0.33 |
| XXXXKXXXX [3064.0089] | 0.29 |
| XXXXLXXXX [3064.0090] | 0.30 |
| XXXXMXXXX [3064.0091] | 0.45 |

Biological target: HLA B*5801 (Homo sapiens, UniProt P01889, A329T/C349S/D201E/D98Y/E176V/E187L/E204Q/E69T/G107R/I218V/I90N/K202T/L105A/L119I/N104I/N87E/Q89R/Q94S/R106L/R155S/R180L/R86G/S101N/S121R/S35A/S48A/T118I/V127L/V306I/V36M/Y140S/Y91M)
Test: not given
Assay type: binding

| Sequence | Normalized average relative binding affinity(ARB) |
| --- | --- |
| XXXXGXXXX [3064.0086] | 0.38 |
| XXXXHXXXX [3064.0087] | 0.21 |
| XXXXIXXXX [3064.0088] | 0.34 |
| XXXXKXXXX [3064.0089] | 0.11 |
| XXXXLXXXX [3064.0090] | 0.25 |
| XXXXMXXXX [3064.0091] | 0.092 |

Biological target: HLA B*5301 (Homo sapiens, UniProt P01889, A329T/A93T/A95T/C349S/D201E/D98Y/E176V/E187L/E204Q/E69T/G107R/I218V/K202T/L105A/L119I/N104I/Q94N/R106L/R155S/R180L/S101N/S121R/S35A/S48A/T118I/V127L/V306I/V36M/Y140S/Y91F)
Test: not given
Assay type: binding

| Sequence | Normalized average relative binding affinity(ARB) |
| --- | --- |
| XXXXGXXXX [3064.0086] | 0.32 |
| XXXXHXXXX [3064.0087] | 0.091 |
| XXXXIXXXX [3064.0088] | 0.30 |
| XXXXKXXXX [3064.0089] | 0.042 |
| XXXXLXXXX [3064.0090] | 0.18 |
| XXXXMXXXX [3064.0091] | 0.38 |

Biological target: HLA A*6802 (Homo sapiens, UniProt P04439, A269V/D140Y/D185E/E176V/E277Q/E87N/F33Y/G231S/I121R/I166T/I218V/L180W/L300P/L318F/N151K/P208A/P217A/Q86R/R138H/R169H/S129P/T345S/V36M)
Test: not given
Assay type: binding

| Sequence | Normalized average relative binding affinity(ARB) |
| --- | --- |
| XXXXGXXXX [3064.0086] | 1.0 |
| XXXXHXXXX [3064.0087] | 0.46 |
| XXXXIXXXX [3064.0088] | 0.88 |
| XXXXKXXXX [3064.0089] | 0.14 |
| XXXXLXXXX [3064.0090] | 0.43 |
| XXXXMXXXX [3064.0091] | 0.78 |

Biological target: HLA B*5401 (Homo sapiens, UniProt P01889, A329T/C349S/D138N/D201E/E176V/E187T/E204Q/E69G/I76V/K202T/L119W/R155S/R180L/S121T/S35A/S48A/V127L/V306I/V36M/Y140L)
Test: not given
Assay type: binding

| Sequence | Normalized average relative binding affinity(ARB) |
| --- | --- |
| XXXXGXXXX [3064.0086] | 0.19 |
| XXXXHXXXX [3064.0087] | 0.19 |
| XXXXIXXXX [3064.0088] | 0.13 |
| XXXXKXXXX [3064.0089] | 0.049 |
| XXXXLXXXX [3064.0090] | 0.15 |
| XXXXMXXXX [3064.0091] | 0.72 |

Biological target: HLA B*5802 (Homo sapiens, UniProt P01889, A329T/C349S/D201E/D98Y/E176V/E187L/E204Q/E69T/G107R/I218V/I90N/K202T/L105A/N104I/N87E/Q89R/Q94S/R106L/R155S/R180L/R86G/S101N/S121W/S35A/S48A/V127L/V306I/V36M/Y140S/Y91M)
Test: not given
Assay type: binding

| Sequence | Normalized average relative binding affinity(ARB) |
| --- | --- |
| XXXXGXXXX [3064.0086] | 0.37 |
| XXXXHXXXX [3064.0087] | 0.74 |
| XXXXIXXXX [3064.0088] | 0.79 |
| XXXXKXXXX [3064.0089] | 0.58 |
| XXXXLXXXX [3064.0090] | 0.063 |
| XXXXMXXXX [3064.0091] | 0.42 |

Biological target: HLA B*3501 (Homo sapiens, UniProt P01889, A329T/A93T/A95T/C349S/D201E/D98Y/E176V/E187L/E204Q/E69T/I218V/K202T/L119I/Q94N/R155S/R180L/S121R/S35A/S48A/T118I/V127L/V306I/V36M/Y140S/Y91F)
Test: not given
Assay type: binding

| Sequence | Normalized average relative binding affinity(ARB) |
| --- | --- |
| XXXXGXXXX [3064.0086] | 0.35 |
| XXXXHXXXX [3064.0087] | 0.19 |
| XXXXIXXXX [3064.0088] | 0.26 |
| XXXXKXXXX [3064.0089] | 0.12 |
| XXXXLXXXX [3064.0090] | 0.23 |
| XXXXMXXXX [3064.0091] | 0.98 |

Biological target: H-2 K^k (Mus musculus, UniProt P04223)
Sequence (P01887 21-119): as the sequence (P01887 21-119) above
Sequence (P04223 22-369): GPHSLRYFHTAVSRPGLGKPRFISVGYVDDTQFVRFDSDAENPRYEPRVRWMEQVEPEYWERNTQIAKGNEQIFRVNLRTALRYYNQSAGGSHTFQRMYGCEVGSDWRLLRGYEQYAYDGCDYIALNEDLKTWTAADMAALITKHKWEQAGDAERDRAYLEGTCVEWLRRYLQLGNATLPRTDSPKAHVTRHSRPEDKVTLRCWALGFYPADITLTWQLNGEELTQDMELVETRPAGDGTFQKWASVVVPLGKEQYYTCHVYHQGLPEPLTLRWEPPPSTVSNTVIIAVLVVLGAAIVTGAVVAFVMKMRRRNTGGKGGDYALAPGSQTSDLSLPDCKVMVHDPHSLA
Test: not given
Assay type: binding

| Sequence | Normalized average relative binding affinity(ARB) |
| --- | --- |
| XXXXGXXXX [3064.0086] | 0.17 |
| XXXXHXXXX [3064.0087] | 0.022 |
| XXXXIXXXX [3064.0088] | 0.24 |
| XXXXKXXXX [3064.0089] | 0.091 |
| XXXXLXXXX [3064.0090] | 0.11 |
| XXXXMXXXX [3064.0091] | 0.24 |

Biological target: H-2 D^b (Mus musculus, UniProt P01899)
Sequence (P01887 21-119): as the sequence (P01887 21-119) above
Sequence (P01899 25-362): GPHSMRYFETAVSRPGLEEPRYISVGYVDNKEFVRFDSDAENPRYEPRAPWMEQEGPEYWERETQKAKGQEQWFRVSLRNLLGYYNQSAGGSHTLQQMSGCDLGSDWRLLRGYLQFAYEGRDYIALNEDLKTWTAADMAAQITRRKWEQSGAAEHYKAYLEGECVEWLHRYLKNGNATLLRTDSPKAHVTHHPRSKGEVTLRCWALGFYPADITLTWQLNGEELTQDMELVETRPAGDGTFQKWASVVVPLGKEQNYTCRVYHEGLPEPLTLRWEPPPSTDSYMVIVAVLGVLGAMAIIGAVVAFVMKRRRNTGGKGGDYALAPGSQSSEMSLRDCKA
Test: not given
Assay type: binding

| Sequence | Normalized average relative binding affinity(ARB) |
| --- | --- |
| XXXXGXXXX [3064.0086] | 0.064 |
| XXXXHXXXX [3064.0087] | 0.066 |
| XXXXIXXXX [3064.0088] | 0.020 |
| XXXXKXXXX [3064.0089] | 0.032 |
| XXXXLXXXX [3064.0090] | 0.10 |
| XXXXMXXXX [3064.0091] | 0.086 |

From publication PMC2248166, “Quantitative peptide binding motifs for 19 human and mouse MHC class I molecules derived using positional scanning combinatorial peptide libraries” (Immunome Research, 2008)
